Square brackets hold non-standard residues; d marks the D form. Ends that are not written are not given here. Peptide text beside a SMILES is read from it. Phe(4-NO2) = N[C@@H](Cc1ccc([N+](=O)[O-])cc1)C(=O)O; Bta = N[C@@H](Cc1csc2ccccc12)C(=O)O; Phg = N[C@H](C(=O)O)c1ccccc1; Nle = CCCC[C@H](N)C(=O)O; Nva = CCC[C@H](N)C(=O)O
Tests used:
[1] = target: HLA-A*0201 (Homo sapiens, UniProt P04439, D140Y/D185E/D98H/E176V/E277Q/G131W/G231S/I119V/I121R/I166T/I218V/L300P/L318F/N151K/N90K/P208A/P217A/Q86G/Q94H/R138H/R169H/T345S); test: Peptide binding using T2 cells (SSX-2 41-49 analogs); conditions: for Relative affinity (1/RA): half maximal binding of wild-type peptide relative to analog, native = 1.0
Description: Thus, at limiting concentrations of peptide, it is a measurement of Kon mostly and at saturation levels of peptide it is a measurement of both Kon and Koff.

[2] = tested on: T cell lines against a natural (non-mutated) epitope (SSX-241-49); test: Cross-reactivity and functional avidity: IFN-gamma from T cell lines against natural SSX-2 41-49 epitope; assay type: cell-based, HHD transgenic mice; conditions: for Cross-reactivity and fct avidity (native to analogs)*: IFN-gamma from T cell line raised against native SSX-2 41-49, native = 1, lower = more active;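 as to all read-outs here: peptide analogs tested ex vivo with competent APCs, IFN-gamma in supernatant measured by ELISA, readouts include minimal triggering concentration, peak effect and concentration at peak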
[3] = tested on: T cells that recognized native PSMA288-297 peptide; test: Peptide immunization with PSMA analogs, IFN-gamma ELISPOT against native peptide; assay type: in vivo, HHD transgenic mice; conditions: peptide + pI:C intranodal immunization
Protocol: Groups of HHD transgenic mice (n=8) were immunized with peptide (natural epitope PSMA288-297, or analogs bearing substitutions at primary or secondary anchor residues) by direct inoculation into the inguinal lymph nodes, with 25 μg in 25 μl of PBS+12.5 μg of pI:C to each lymph node at day 0, 3, 14 and 17.
Mice were sacrificed at 10 days after the last boost, and splenocytes prepared and assessed for IFN-γ production by ELISPOT analysis. […] At 48 hours after incubation, the assay was developed and the frequency of cytokine-producing T cells that recognized native PSMA288-297 peptide was automatically counted. The data is represented in FIG. 22 as the number of spot forming colonies/well (mean of triplicates±SD). […] To the extent that the poor immunogenicity of the native epitope reflects tolerance, the improved activity of these analogs represents tolerance breaking.

[4] = tested on: PRAME+ A2+ 624.38 melanoma cells; test: PRAME immunization, ex vivo cytotoxicity against human tumor cells; assay type: in vivo, HHD transgenic mice; conditions: mouse, in vivo
Protocol: This was followed by two peptide boosts (2.5 μg) at day 28 and 31, with the analog L426Nva L433Nle.

Compound | Relative affinity (1/RA) [1] | Cross-reactivity and fct avidity (native to analogs)* [2] | also measured
CC[C@H](C)[C@H](NC(=O)[C@H](CCCCN)NC(=O)[C@H](CCC(=O)O)NC(=O)[C@H](CO)NC(=O)[C@H](C)NC(=O)[C@@H](N)c1ccccc1)C(=O)N[C@@H](Cc1ccccc1)C(=O)N[C@@H](Cc1ccc(O)cc1)C(=O)N[C@H](C(=O)O)C(C)C [SSX2 41-49 (K41(Phg))] (H-[Phg]ASEKIFYV-OH) | 2.5 | 0.1 | –
FISEKIFYV [SSX2 41-49 (K41F, A42I)] | 2.7 | 0.3 | –
CC[C@H](C)[C@H](NC(=O)[C@H](CCCCN)NC(=O)[C@H](CCC(=O)O)NC(=O)[C@H](CO)NC(=O)[C@H](C)NC(=O)[C@@H](N)Cc1csc2ccccc12)C(=O)N[C@@H](Cc1ccccc1)C(=O)N[C@@H](Cc1ccc(O)cc1)C(=O)N[C@H](C(=O)O)C(C)C [SSX2 41-49 (K41(b-(3-benzothienyl)Ala))] (H-[Bta]ASEKIFYV-OH) | 0.6 | 10 | –
FVSDKIFYV [SSX2 41-49 (K41F, A42V, E44D)] | 1.1 | >10 | –
{Abu}LPSIPVHPI [Peptide G288Abu] | – | – | IFN-γ ELISPOT response against native epitope, in words [3]: slightly higher (but significant) activity than the native peptide
FVSEKIFYV [SSX2 41-49 (K41F, A42V)] | 3.1 | 0.1 | –
SLLQHLIGL [PRAME 425-433, reference compound] | – | – | ex vivo cytotoxicity against A2+ PRAME+ 624.38 cells, in words [4]: able to lyse human tumor cells
I297Nva: PSMA288-297 analog with Nva for Ile at position 297 [Peptide I297Nva] | – | – | IFN-γ ELISPOT response against native epitope, in words [3]: slightly higher (but significant) activity than the native peptide
CC[C@H](C)[C@H](NC(=O)[C@H](CCCCN)NC(=O)[C@H](CCC(=O)O)NC(=O)[C@H](CO)NC(=O)[C@H](C)NC(=O)[C@@H](N)Cc1ccc(OC)cc1)C(=O)N[C@@H](Cc1ccccc1)C(=O)N[C@@H](Cc1ccc(O)cc1)C(=O)N[C@H](C(=O)O)C(C)C [SSX2 41-49 (K41(O-methyl Tyr))] (H-Y(Me)ASEKIFYV-OH) | 0.8 | 3 | –
KISEKIFYV [SSX2 41-49 (A42I)] | 1.7 | 3 | –
KMSEKIFYV [SSX2 41-49 (A42M)] | 1.7 | 0.1 | –
KLSEKIFYI [SSX2 41-49 (A42L, V49I)] | 2.6 | 0.03 | –
GLWSIPVHPI [Peptide P290W] | – | – | IFN-γ ELISPOT response against native epitope, in words [3]: increased priming of immune responses against the native epitope
CC[C@H](C)[C@H](NC(=O)[C@H](CCCCN)NC(=O)[C@H](CCC(=O)O)NC(=O)[C@H](CO)NC(=O)[C@H](C)NC(=O)[C@@H](N)Cc1ccc([N+](=O)[O-])cc1)C(=O)N[C@@H](Cc1ccccc1)C(=O)N[C@@H](Cc1ccc(O)cc1)C(=O)N[C@H](C(=O)O)C(C)C [SSX2 41-49 (K41(Phe-4N02))] (H-[Phe(4-NO2)]ASEKIFYV-OH) | 1.1 | 3 | binding affinity (and stability) with HLA-A*0201 relative to wild-type, in words ([1]; SSX-2 41-49 analogs): about the same as that of wild-type peptide; cross-reactivity / IFN-gamma inducing activity relative to wild-type, in words ([2]; SSX-2 41-49 analogs, wild-type specific T cells): much lower concentration
FVSEKLFSA | 2.4 | >10 | –

The next lines start with results.

Relative affinity (1/RA) [1] | Compound | Cross-reactivity and fct avidity (native to analogs)* [2] | also measured
1.9 | FVSEKLFYV [SSX2 41-49 (K41F, A42V, I46L)] | 3 | –
1.1 | CCCC[C@H](NC(=O)[C@H](CCCCN)NC(=O)[C@H](CCC(=O)O)NC(=O)[C@H](CO)NC(=O)[C@@H](NC(=O)[C@@H](N)Cc1ccccc1)C(C)C)C(=O)N[C@@H](Cc1ccccc1)C(=O)N[C@@H](Cc1ccc(O)cc1)C(=O)N[C@H](C(=O)O)C(C)C [SSX2 41-49 (K41F, A42V, I46Nle), FVSEK(Nle)FYV] (H-FVSEK[Nle]FYV-OH) | 10 | –
0.8 | FVSEKIFYM [SSX2 41-49 (K41F, A42V, V49M)] | >10 | –
1.7 | CC[C@H](C)[C@H](NC(=O)[C@H](CCCCN)NC(=O)[C@H](CCC(=O)O)NC(=O)[C@H](CO)NC(=O)[C@@H](NC(=O)[C@@H](N)Cc1ccccc1)C(C)C)C(=O)N[C@@H](Cc1ccccc1)C(=O)N[C@@H](Cc1ccccc1)C(=O)N[C@H](C(=O)O)C(C)C [SSX2 41-49 (K41F, A42V, Y48F)] | 10 | –
0.4 | FVSQKIFYV [SSX2 41-49 (K41F, A42V, E44Q)] | 10 | –
2.6 | FVSEKLFTV [SSX2 41-49 (K41F, A42V, I46L, Y48T)] | >10 | –
3.0 | WVSEKIFYV [SSX2 41-49 (K41W, A42V)] | 1 | –
0.6 | YMSEKIFYV [SSX2 41-49 (K41Y, A42M)] | 3 | –
3.3 | WLSEKIFYV [SSX2 41-49 (K41W, A42L)] | 0.3 | –
1.0 | KASEKIFYI [SSX2 41-49 (V49I)] | 10 | –
2.5 | CC[C@H](C)[C@H](NC(=O)[C@H](CCCCN)NC(=O)[C@H](CCC(=O)O)NC(=O)[C@H](CO)NC(=O)[C@@H](NC(=O)[C@@H](N)Cc1ccccc1)C(C)C)C(=O)N[C@@H](Cc1ccccc1)C(=O)N[C@H](C(=O)N[C@H](C(=O)O)C(C)C)c1ccccc1 [SSX2 41-49 (K41F, A42V, Y48Phg), FVSEKIF(Phg)V] (H-FVSEKIF[Phg]V-OH) | >10 | –
2.9 | WMSEKIFYV [SSX2 41-49 (K41W, A42M)] | 1 | –
1.0 | CC[C@H](C)[C@H](NC(=O)[C@H](CCCCN)NC(=O)[C@H](CCC(=O)O)NC(=O)[C@H](CO)NC(=O)[C@@H](NC(=O)[C@@H](N)Cc1ccc(O)cc1)C(C)C)C(=O)N[C@@H](Cc1ccccc1)C(=O)N[C@@H](Cc1ccc(O)cc1)C(=O)N[C@H](C(=O)O)C(C)C [SSX2 41-49 (K41Y, A42V)] | 0.1 | –
3.8 | FVSEKIFTV [SSX2 41-49 (K41F, A42V, Y48T)] | >10 | –
3.9 | CCC[C@H](NC(=O)[C@H](CO)NC(=O)[C@@H](NC(=O)[C@@H](N)Cc1ccccc1)C(C)C)C(=O)N[C@@H](CCCCN)C(=O)N[C@H](C(=O)N[C@@H](Cc1ccccc1)C(=O)N[C@@H](Cc1ccc(O)cc1)C(=O)N[C@H](C(=O)O)C(C)C)[C@@H](C)CC [SSX2 41-49 (K41F, A42V, E44Nva), FVS(Nva)KIFYV] (H-FVS[Nva]KIFYV-OH) | 3 | –
1.2 | YLSEKIFYV [SSX2 41-49 (K41Y, A42L)] | – | –
2.4 | CCC[C@H](NC(=O)[C@H](CCCCN)NC(=O)[C@H](CCC(=O)O)NC(=O)[C@H](CO)NC(=O)[C@@H](NC(=O)[C@@H](N)Cc1ccccc1)C(C)C)C(=O)N[C@@H](Cc1ccccc1)C(=O)N[C@@H](Cc1ccc(O)cc1)C(=O)N[C@H](C(=O)O)C(C)C [SSX2 41-49 (K41F, A42V, I46Nva), FVSEK(Nva)FYV] (H-FVSEK[Nva]FYV-OH) | 1 | –
3.9 | FVSEKIFSV [SSX2 41-49 (K41F, A42V, Y48S)] | >10 | –
1.1 | CCCC[C@H](NC(=O)[C@H](CO)NC(=O)[C@@H](NC(=O)[C@@H](N)Cc1ccccc1)C(C)C)C(=O)N[C@@H](CCCCN)C(=O)N[C@H](C(=O)N[C@@H](Cc1ccccc1)C(=O)N[C@@H](Cc1ccc(O)cc1)C(=O)N[C@H](C(=O)O)C(C)C)[C@@H](C)CC [SSX2 41-49 (K41F, A42V, E44Nle), FVS(Nle)KIFYV] (H-FVS[Nle]KIFYV-OH) | 10 | –

Reference: patent publication US7605227B2, “Melanoma antigen peptide analogues” (MannKind Corporation, priority 2005, dated 2009)
